Assay results from ChEMBL document CHEMBL5385903, “The activity and mechanism of vidofludimus as a potent enzyme inhibitor against NDM-1-positive E. coli” (Eur J Med Chem, 2023).
≈ marks a conversion by molar mass, not a printed value. Calls of active or inactive are those of the source. The rule behind the calls is not given here.

Assays:
[1] = target: Metallo-beta-lactamase type 2 (Bacteria, UniProt C7C422); experiment: Inhibition of Metallo-beta-lactamase NDM-1 (unknown origin) using nitrocefin as substrate incubated for 5 to 10 mins by spectramax reader analysis
Escherichia coli [2] = experiment: Antibacterial activity in NDM-1 producing Escherichia coli infected in BALB/c mouse assessed as decrease in IL-1beta level at 10 mg/kg,IG administration measured after 96 hrs of post-infection by ELISA; type: functional, organism-based
Escherichia coli [3] = experiment: Antibacterial activity in NDM-1 producing Escherichia coli infected in BALB/c mouse assessed as decrease in pathological damage in spleen at 10 mg/kg,IG administration measured after 96 hrs of post-infection by hematoxylin and eosin staining based assay; type: functional, organism-based
[4] = target: Beta-lactamase NDM-1 (Escherichia coli) (UniProt E5KIY2); experiment: Inhibition of Escherichia coli NDM-1 expressed in Escherichia coli BL21 (DE3) using nitrocefin as substrate at 10 ug/ml by microplate reader analysis relative to control; details: dose 10.0 µg/ml
Escherichia coli [5] = experiment: Antibacterial activity against NDM-1 producing Escherichia coli assessed as inhibition of bacterial growth at 64 ug/ml incubated for 5 hrs by time-kill assay; type: functional, organism-based; details: dose 64.0 µg/ml
[6] = target: Beta-lactamase NDM-1 (Escherichia coli) (UniProt E5KIY2); experiment: Binding affinity to Escherichia coli NDM-1 by bio-layer interferometry analysis
Escherichia coli [7] = experiment: Synergistic antibacterial activity against NDM-1 producing Escherichia coli assessed as fractional inhibitory concentration index in presence of meropenem by checkerboard broth microdilution assay; type: functional
Escherichia coli [8] = experiment: Synergistic antibacterial activity against NDM-1 producing Escherichia coli assessed as inhibition of bacterial growth by measuring meropenem MIC incubated overnight in presence of meropenem by broth microdilution assay; type: functional
Escherichia coli [9] = experiment: Antibacterial activity against NDM-1 producing Escherichia coli assessed as inhibition of bacterial growth incubated overnight by broth microdilution assay; type: functional
Escherichia coli [10] = experiment: Antibacterial activity in NDM-1 producing Escherichia coli infected in BALB/c mouse assessed as effect on white blood cell count at 10 mg/kg,IG administration measured after 96 hrs of post-infection; type: functional, organism-based
Escherichia coli [11] = experiment: Antibacterial activity in NDM-1 producing Escherichia coli infected in BALB/c mouse assessed as increase in animal survival rate at 10 mg/kg,IG administrated upto 120 hrs for every 12 hrs interval; type: functional; details: po
Escherichia coli [12] = experiment: Antibacterial activity in NDM-1 producing Escherichia coli infected in BALB/c mouse assessed as decrease in TNF-alpha level at 10 mg/kg,IG administration measured after 96 hrs of post-infection by ELISA; type: functional, organism-based
Escherichia coli [13] = experiment: Synergistic antibacterial activity in NDM-1 producing Escherichia coli infected in BALB/c mouse assessed as increase in animal survival rate at 10 mg/kg,IG administrated with meropenem by subcutaneous injection upto 120 hrs for every 12 hrs interval; type: functional
Escherichia coli [14] = experiment: Antibacterial activity in NDM-1 producing Escherichia coli infected in BALB/c mouse assessed as decrease in pathological damage in small intestine at 10 mg/kg,IG administration measured after 96 hrs of post-infection by hematoxylin and eosin staining based assay; type: functional, organism-based
[15] = target: Beta-lactamase NDM-1 (Escherichia coli) (UniProt E5KIY2); experiment: Inhibition of Escherichia coli recombinant wild type NDM-1 expressed in Escherichia coli BL21 (DE3) incubated for 10 mins
Escherichia coli [16] = experiment: Antibacterial activity against NDM-1 producing Escherichia coli assessed as inhibition of bacterial growth at 2 to 512 ug/ml incubated overnight by broth microdilution assay; type: functional, organism-based; details: dose 2-512 µg/ml
Beta-lactamase NDM-1 [17] = target: T1, Beta-lactamase NDM-1 (Escherichia coli, UniProt E5KIY2); experiment: Binding affinity to Escherichia coli NDM-1 assessed as equilibrium dissociation constant measured for 60 sec by bio-layer interferometry analysis
[18] = target: Beta-lactamase NDM-1 (Escherichia coli) (UniProt E5KIY2); experiment: Inhibition of Escherichia coli recombinant wild type NDM-1 expressed in Escherichia coli BL21 (DE3) at 4 to 128 ug/ml incubated for 10 mins relative to control; details: dose 4-128 µg/ml
[19] = test system: Beta-lactamase NDM-1 (Escherichia coli), E5KIY2 [UNDEFINED MUTATION]; experiment: Inhibition of Escherichia coli recombinant NDM-1 mutant expressed in Escherichia coli BL21 (DE3) at 4 to 128 ug/ml incubated for 10 mins; details: dose 4-128 µg/ml
[20] = target: Beta-lactamase NDM-1 (Escherichia coli) (UniProt E5KIY2); experiment: Binding affinity to Escherichia coli NDM-1 assessed as melting temperature at 64 ug/ml incubated for 18 hrs by CD spectroscopy; details: dose 64.0 µg/ml
Beta-lactamase NDM-1 [21] = target: T1, Beta-lactamase NDM-1; experiment: Inhibition of Escherichia coli NDM-1 expressed in Escherichia coli BL21 (DE3) using nitrocefin as substrate by microplate reader analysis
Escherichia coli [22] = experiment: Synergistic antibacterial activity against NDM-1 producing Escherichia coli assessed as inhibition of bacterial growth incubated overnight in presence of meropenem by broth microdilution assay; type: functional
Escherichia coli [23] = experiment: Antibacterial activity in NDM-1 producing Escherichia coli infected in BALB/c mouse assessed as decrease in pathological damage in liver at 10 mg/kg,IG administration measured after 96 hrs of post-infection by hematoxylin and eosin staining based assay; type: functional, organism-based
Escherichia coli [24] = experiment: Antibacterial activity in NDM-1 producing Escherichia coli infected in BALB/c mouse assessed as decrease in IFN-gamma level at 10 mg/kg,IG administration measured after 96 hrs of post-infection by ELISA; type: functional, organism-based
[25] = target: Beta-lactamase NDM-1 (Escherichia coli) (UniProt E5KIY2); experiment: Inhibition of Escherichia coli NDM-1 assessed as effect on NDM-1 protein expression at 64 ug/ml incubated for 12 hrs by Western blotting analysis; details: dose 64.0 µg/ml
Escherichia coli [26] = experiment: Antibacterial activity in NDM-1 producing Escherichia coli infected in BALB/c mouse assessed as decrease in pathological damage in small intestine at 10 mg/kg,SC administration measured after 96 hrs of post-infection by hematoxylin and eosin staining based assay; type: functional, organism-based
Escherichia coli [27] = experiment: Antibacterial activity in NDM-1 producing Escherichia coli infected in BALB/c mouse assessed as increase in animal survival rate at 10 mg/kg,SC administrated upto 120 hrs for every 12 hrs interval; type: functional
Escherichia coli [28] = experiment: Antibacterial activity in NDM-1 producing Escherichia coli infected in BALB/c mouse assessed as reduction of bacterial burden in spleen at 10 mg/kg,SC administration measured after 96 hrs of post-infection; type: functional, organism-based
Escherichia coli [29] = experiment: Antibacterial activity against NDM-1 producing Escherichia coli assessed as inhibition of bacterial growth at 4 ug/ml incubated for 5 hrs by time-kill assay; type: functional, organism-based; details: dose 4.0 µg/ml
Escherichia coli [30] = experiment: Antibacterial activity in NDM-1 producing Escherichia coli infected in BALB/c mouse assessed as reduction of bacterial burden in liver at 10 mg/kg,SC administration measured after 96 hrs of post-infection; type: functional, organism-based
Escherichia coli [31] = experiment: Antibacterial activity in NDM-1 producing Escherichia coli infected in BALB/c mouse assessed as decrease in pathological damage in liver at 10 mg/kg,SC administration measured after 96 hrs of post-infection by hematoxylin and eosin staining based assay; type: functional, organism-based
Escherichia coli [32] = experiment: Antibacterial activity in NDM-1 producing Escherichia coli infected in BALB/c mouse assessed as reduction of bacterial burden in small intestine at 10 mg/kg,SC administration measured after 96 hrs of post-infection; type: functional, organism-based
Escherichia coli [33] = experiment: Antibacterial activity in NDM-1 producing Escherichia coli infected in BALB/c mouse assessed as decrease in pathological damage in spleen at 10 mg/kg,SC administration measured after 96 hrs of post-infection by hematoxylin and eosin staining based assay; type: functional, organism-based

Molecule `N[C@@H](CN[C@@H](CN[C@@H](CC(=O)O)C(=O)O)C(=O)O)C(=O)O` has an IC50 [1] of 4.1 µM.
With `COc1cccc(-c2ccc(NC(=O)C3=C(C(=O)O)CCC3)c(F)c2)c1` [VIDOFLUDIMUS] the Activity (Escherichia coli [2]) was “inactive”, the Activity (Escherichia coli [3]) was “inactive” and the inhibition [4] was 93.3%. For the same molecule, the Activity (Escherichia coli [5]) was “inactive”, the Activity [6] was “Dose-Dependent Effect” and the “fractional inhibitory concentration index (FICI)” value (Escherichia coli [7]) was 0.125. For the same molecule, the MIC (Escherichia coli [8]) was 4 µg/mL, the MIC (Escherichia coli [9]) was 1020 µg/mL (≈ 2880 µM) and the Activity (Escherichia coli [10]) was “inactive”. The survival at 10 mg/kg (Escherichia coli [11]) was 10%, the Activity (Escherichia coli [12]) was “inactive” and the survival at 10 mg/kg (Escherichia coli [13]) was 90%. For the same molecule, the Activity (Escherichia coli [14]) was “inactive”, the inhibition [15] was “Dose-Dependent Effect” and the Activity (Escherichia coli [16]) was “inactive”. The Kd (Beta-lactamase NDM-1 [17]) was 0.337 µM, the inhibition [18] was 14.9% and the inhibition [19] was “inactive”. The Tm [20] was 58 °C, the IC50 (Beta-lactamase NDM-1 [21]) was 13.8 µM and the MIC (Escherichia coli [22]) was 64 µg/mL. For the same molecule, the Activity (Escherichia coli [23]) was “inactive”, the Activity (Escherichia coli [24]) was “inactive” and the inhibition [25] was “inactive”.
With `C[C@@H](O)[C@H]1C(=O)N2C(C(=O)O)=C(S[C@@H]3CN[C@H](C(=O)N(C)C)C3)[C@H](C)[C@H]12` [MEROPENEM] the Activity (Escherichia coli [26]) was “Active”, the survival at 10 mg/kg (Escherichia coli [27]) was 40% and the MIC (Escherichia coli [9]) was 64 µg/mL (≈ 167 µM). For the same molecule, the Activity (Escherichia coli [28]) was “Active”, the Activity (Escherichia coli [29]) was “inactive” and the Activity (Escherichia coli [30]) was “Active”. For the same molecule, the Activity (Escherichia coli [31]) was “Active”, the Activity (Escherichia coli [32]) was “Active” and the Activity (Escherichia coli [33]) was “Active”.
